In patent publication US20260215418A1, “HYDROCARBON ALCOHOLS AND THEIR DERIVATIVES AS SYNERGISTS IN PESTICIDE ACTIVITY” (priority 2022, published 2026):

Legend:
Assay type in all cases: in vivo
[1] = system: Musca domestica L.; experiment: Contact test on non-porous tile, Musca domestica
Method: 1 ml of Composition 1 was applied to the tile. […] 1 ml of Composition 8a was distributed on the tile. […] 1 ml of Composition 8a was distributed on a tile. […] At the end of the 30 minutes, the flies were transferred to an untreated area.
1 ml of Composition 3 was applied to the tile. […] 1 ml of Composition 8c was distributed on the tile. […] 1 ml of Composition 8c was distributed on a tile. […] At the end of the 30 minutes, the flies were transferred to an untreated area.
1 ml of Composition 9a was distributed on the tile. […] 1 ml of Composition 9a was distributed on a tile. […] At the end of the 30 minutes, the flies were transferred to an untreated area. […] 1 ml of Composition 10a was distributed on the tile. […] 1 ml of Composition 10a was distributed on a tile. […] At the end of the 30 minutes, the flies were transferred to an untreated area. […] 1 ml of Composition 8c was distributed on the tile. […] 1 ml of Composition 8c was distributed on a tile. […] At the end of the 30 minutes, the flies were transferred to an untreated area.
1 ml of Composition 5a, was distributed on the tile. […] 1 ml of Composition 6a was distributed on the tile. […] 1 ml of Composition 7a was distributed on the tile.
1 ml of Composition 3 was distributed on the tile. […] 1 ml of Composition 9a was distributed on the tile. […] 1 ml of Composition 11a was distributed on a tile. […] 1 ml of Composition 12a was distributed on a tile.
1 ml of Composition 3 was distributed on the tile. […] 1 ml of Composition 17a was distributed on a tile. […] 1 ml of Composition 18a was distributed on a tile. […] Each experiment (A-C) was conducted in duplicate.
1 ml of Composition 23a was distributed on the tile. […] 1 ml of Composition 20a was distributed on a tile. […] Each experiment (A-B) was conducted in duplicate.
1 ml of Composition 3 was distributed on the tile. […] 1 ml of Composition 25a was distributed on a tile. […] Each experiment (A-B) was conducted in duplicate.
1 ml of Composition 23a was distributed on the tile. […] 1 ml of Composition 27a was distributed on a tile. […] Each experiment (A-B) was conducted in duplicate.
1 ml of Composition 26a was distributed on a tile. […] 1 ml of Composition 26b was distributed on a tile. […] 1 ml of Composition 26c was distributed on a tile.
1 ml of Composition 22a was distributed on a tile. […] 1 ml of Composition 22b was distributed on a tile. […] 1 ml of Composition 22c was distributed on a tile.
1 ml of Composition 23a was distributed on the tile. […] 1 ml of Composition 44a was distributed on a tile.
1 ml of Composition 33 was distributed on a tile. […] 1 ml of Composition 33 was distributed on a tile. […] At the end of the 30 minutes, the flies were transferred to an untreated area.
1 ml of Composition 1 was distributed on the tile. […] 1 ml of Composition 34 was distributed on a tile. […] 1 ml of Composition 34 was distributed on a tile. […] At the end of the 30 minutes, the flies were transferred to an untreated area.
1 ml of Composition 3 was distributed on the tile. […] 1 ml of Composition 31a was distributed on a tile. […] 1 ml of Composition 31b was distributed on a tile. […] 1 ml of Composition 31b was distributed on a tile. […] At the end of the 30 minutes, the flies were transferred to an untreated area. […] 1 ml of Composition 38a was distributed on a tile. […] 1 ml of Composition 38a was distributed on a tile. […] At the end of the 30 minutes, the flies were transferred to an untreated area.
G) According to the invention. 1 ml of Composition 40a was distributed on a tile. […] Subsequently, after waiting for the solvent to evaporate, 10 flies were placed on top of the treated til

[2] = system: Blatta lateralis; experiment: Contact test on non-porous tile, Blatta lateralis; details: Blatta lateralis
Method: 1 ml of Composition 24 was distributed on the tile. […] 1 ml of Composition 20c was distributed on a tile. […] 1 ml of Composition 20d was distributed on a tile.
1 ml of Composition 24 was distributed on the tile. […] 1 ml of Composition 28 was distributed on a tile. […] Each experiment (A-B) was conducted in duplicate.
1 ml of Composition 24 was distributed on the tile. […] 1 ml of Composition 21 was distributed on a tile.
1 ml of Composition 4b was distributed on the tile. […] 1 ml of Composition 31c was distributed on a tile. […] 1 ml of Composition 31d was distributed on a tile. […] 1 ml of Composition 31d was distributed on a tile.
1 ml of Composition 24 was distributed on the tile. […] 1 ml of Composition 35 was distributed on a tile. […] 1 ml of Composition 40b was distributed on a tile. […] 1 ml of Composition 42 was distributed on a tile.

[3] = system: Blattella germanica; experiment: Contact test on non-porous tile, Blattella germanica; details: 24 h; for Mortality %/time (h) (application): Table 37, Blattella germanica, concentrations in mg/ml in label
Method: 1 ml of Composition 36 was distributed on the tile. […] 1 ml of Composition 37 was distributed on a tile.

Row | Compound | synergizing effect on Azamethiphos ([1]; Musca domestica L., synergist applied with Azamethiphos) | synergizing effect on Cypermethrin ([1]; Musca domestica L., synergist applied with Cypermethrin) | synergizing effect on Pyrethrins ([1]; Musca domestica L., synergist applied with Pyrethrins) | synergizing effect on Spinosad ([1]; Musca domestica L., synergist applied with Spinosad) | mortality at 390 µg/mL ([1]; Musca domestica, single substance alone, 0.39 mg/ml, 48 h, read-out: Mortality %/time (h)) [%] | mortality at 680 µg/mL ([1]; Musca domestica, single substance alone, 0.68 mg/ml, 48 h, read-out: Mortality %/time (h)) [%] | mortality at 1050 µg/mL ([1]; Musca domestica, single substance alone, 1.05 mg/ml, 48 h, read-out: Mortality %/time (h)) [%] | mortality at 2340 µg/mL ([1]; Musca domestica, single substance alone, 2.34 mg/ml, 48 h, read-out: Mortality %/time (h)) [%] | synergizing effect on Cypermethrin ([2]; synergist applied with Cypermethrin) | synergizing effect on Imidacloprid ([2]; synergist applied with Imidacloprid) | Mortality % ([3]; Example 34, 25° C, insects on treated tile) [%] | Mortality %/time (h) (application) [3]
1 | CCCCC(O)CO (stereo not shown) [1,2-hexandiol] | excellent synergizing effect | excellent synergizing effect | good synergizing effect | good synergizing effect | 4 | 7 | 10 | 23 | good synergizing effect | excellent synergizing effect | – | –
2 | O=[N+]([O-])NC1=NCCN1Cc1ccc(Cl)nc1 [Composition 36, Imidacloprid, reference compound] | – | – | – | – | – | – | – | – | – | – | 27 | 27/24 ^ %
3 | Oleic alcohol [Composition 37] | – | – | – | – | – | – | – | – | – | – | – | 7/24 ^ %
